Experimental data taken from US7119073B2, “Peptides and their use as inhibitors of hepatitis C virus ns3 protease” (Istituto Di Ricerche Di Biologia Molecolare P. Angeletti SpA, priority 2001, dated 2006).
Like-named read-outs stand apart in the source and are kept apart here.

Experiments:
[1] = target: T1, full length NS3 protein noncovalently complexed with the full-length NS4A cofactor protein (NS3/NS4A complex) (Hepatitis C virus genotype 1b, UniProt P26663); experiment: Full-length NS3-NS4A heterodimer protein assay (Assay A); assay type: biochemical, hepatitis C virus (HCV)
T1 construct: full length NS3 protein spanning residues 1027–1657 of the HCV polyprotein
T1 sequence (P26663 1027-1657): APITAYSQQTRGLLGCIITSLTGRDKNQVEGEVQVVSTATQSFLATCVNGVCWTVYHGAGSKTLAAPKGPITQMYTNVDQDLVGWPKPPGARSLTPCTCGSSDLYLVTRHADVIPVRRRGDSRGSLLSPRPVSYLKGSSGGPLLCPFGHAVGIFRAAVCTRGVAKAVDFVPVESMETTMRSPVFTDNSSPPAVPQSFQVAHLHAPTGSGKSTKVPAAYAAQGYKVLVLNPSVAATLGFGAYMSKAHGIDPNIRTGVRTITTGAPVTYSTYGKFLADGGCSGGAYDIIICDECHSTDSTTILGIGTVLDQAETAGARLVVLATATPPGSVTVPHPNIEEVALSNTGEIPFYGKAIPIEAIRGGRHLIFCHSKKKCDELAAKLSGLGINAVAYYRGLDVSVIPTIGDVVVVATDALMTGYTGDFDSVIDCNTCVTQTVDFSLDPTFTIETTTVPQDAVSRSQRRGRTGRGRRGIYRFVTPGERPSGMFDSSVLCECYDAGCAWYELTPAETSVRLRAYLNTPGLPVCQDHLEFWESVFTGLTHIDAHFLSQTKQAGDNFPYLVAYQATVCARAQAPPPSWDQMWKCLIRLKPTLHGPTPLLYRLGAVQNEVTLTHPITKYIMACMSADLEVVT
T1 sequence (P26663 1658-1711): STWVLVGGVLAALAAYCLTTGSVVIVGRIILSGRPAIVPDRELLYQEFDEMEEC
Protocol: Full-Length NS3-NS4A Heterodimer Protein Assay (Assay A)
(Gallinari, P., Paolini, C., Brennan, D., Nardi, C., Steinkühler, C. and De Francesco, R. Modulation of hepatitis C virus NS3 protease and helicase activities through the interaction with NS4A. Biochemistry 38, 5620–5632, 1999)
In this assay the full length NS3 protein spanning residues 1027–1657 of the HCV polyprotein, noncovalently complexed with the full-length NS4A cofactor protein (residues 1658–1711) was used. Assays were performed in 60 μl of a buffer containing 50 mM Hepes pH 7.5, 0.15 M NaCl, 0.1% (v/v) Triton X-100, 15% (v/v) glycerol, 10 mM DTT, 2 nM NS3/NS4A complex. To this assay mix 10 μM (final concentration) of a peptide substrate corresponding to the NS5AB cleavage site and having the sequence of the NS5A-NS5B peptide, were added. Incubation times at 23° C. were adjusted to obtain <10% conversion. Reactions were stopped by the addition of 40 μl of 1% TFA. Cleavage was determined by HPLC using a Merck-Hitachi chromatograph equipped with an autosampler. 80 μl samples were injected on a Lichrospher C18 reversed phase cartridge column (4×74 mm, 5 μm, Merck) and fragments were separated using a 10–40% acetonitrile gradient at 5%/min using a flow rate of 2.5 ml/min. Peak detection was done by monitoring both the absorbance at 220 nm and tryptophan fluorescence (λex=280 nm, λem=350 nm). Cleavage products were quantitated by integration of chromatograms with respect to appropriate standards. Kinetic parameters were calculated from nonlinear least-squares fit of initial rates as a function of substrate concentration with the help of a Kaleidagraph software, assuming Michaelis-Menten kinetics.
Ki values of peptide inhibitors were calculated from substrate titration experiments performed in the presence of increasing amounts of inhibitor. Experimental data sets were simultaneously fitted to eg.1 using a multicurve fit macro with the help of a Sigmaplot software: V=(VmaxS)/(Km([…])+S); (eq.1) Alternatively, Ki values were derived from IC50 values, calculated using a four-parameter logistic function, according to eq.2: IC50=(1+S/Km)Ki (eq.2)

[2] = target: T2, NS3 protease domain complexed to a modified form of the NS4A peptide (Pep4AK) (Hepatitis C virus genotype 1b, UniProt P26663); experiment: HCV NS3 protease domain/NS4A cofactor peptide assay (Assay B); assay type: biochemical
T2 construct: NS3 protease domain (residues 1027–1206 of the HCV polyprotein)
T2 sequence (P26663 1027-1206, other chains not shown): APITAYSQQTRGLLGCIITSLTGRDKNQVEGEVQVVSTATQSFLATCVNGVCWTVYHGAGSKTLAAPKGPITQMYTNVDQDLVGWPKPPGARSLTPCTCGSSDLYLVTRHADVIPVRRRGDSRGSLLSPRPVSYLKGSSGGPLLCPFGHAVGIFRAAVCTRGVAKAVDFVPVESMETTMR

[3] = NS3 protease domain/NS4A cofactor peptide assay, read-out: Assay B (IC50 class)
[4] = Table 1, NS3 protease domain/Pep4AK, 4AB peptide substrate, read-out: Assay B
[5] = Table 5, full-length NS3/NS4A, read-out: AssayA

Compound | IC50 [1, 5] [µM] | also measured
CC(C)C[C@H](NC(=O)C1(Cc2ccsc2C(=O)O)Cc2ccccc2N1)C(=O)N[C@@H](CC(F)F)C(=O)NCCc1ccc(C(=O)O)cc1Cl (single isomer, unassigned) [Compound 705] |  | IC50 [1]: < 100 µM; IC50 [2, 3]: < 10 µM
CC(C)C[C@H](NC(=O)C1(Cc2ccsc2C(=O)O)Cc2ccccc2N1)C(=O)N[C@@H](CC(F)F)C(=O)NCCc1cccc(/C=C/C(=O)O)c1 (single isomer, unassigned) [Compound 706] |  | IC50 [1]: < 100 µM; IC50 [2, 3]: < 10 µM
CC(C)C[C@H](NC(=O)C1(Cc2ccsc2C(=O)O)Cc2ccccc2N1)C(=O)N[C@@H](CC(F)F)C(=O)NCCc1c(F)cc(C(=O)O)cc1F (single isomer, unassigned) [Compound 708b] |  | IC50 [1]: < 100 µM; IC50 [2, 3]: < 10 µM
CC(C)C[C@H](NC(=O)C1(Cc2ccc(C(=O)O)s2)CCc2ccccc2N1)C(=O)N[C@@H](CC(F)F)C(=O)NCCc1ccc(C(=O)O)cc1Cl (single isomer, unassigned) [Compound 711b] |  | IC50 [1]: < 100 µM; IC50 [2, 3]: < 10 µM
CC(C)C[C@H](NC(=O)C1(Cc2cccc(C(=O)O)c2)CCc2ccccc2N1)C(=O)N[C@@H](CC(F)F)C(=O)NCCc1ccc(C(=O)O)cc1Cl (single isomer, unassigned) [Compound 712b] |  | IC50 [1]: < 100 µM; IC50 [2, 3]: < 10 µM
CC(C)CC(NC(=O)C(CCC(=O)O)NC(=O)OC(C)(C)C)C(=O)NC(CS)C(=O)NCCc1ccccc1Cl (stereo not drawn) [Compound 114] |  | IC50 [1]: < 100 µM; IC50 [2, 4]: < 10 µM
CC(C)CC(NC(=O)C(CCC(=O)O)NC(=O)OC(C)(C)C)C(=O)NC(CC(F)F)C(=O)NCCc1ccccc1Cl (stereo not drawn) [Compound 115] |  | IC50 [1]: < 100 µM; IC50 [2, 4]: < 10 µM
CC(C)COC(=O)NC(CCC(=O)O)C(=O)NC(CC(C)C)C(=O)NC(CS)C(=O)NCCc1cccc(C(=O)O)c1 (stereo not drawn) [Compound 133] |  | IC50 [1]: < 100 µM; IC50 [2, 4]: < 10 µM
CC(C)COC(=O)NC(CCC(=O)O)C(=O)NC(CC(C)C)C(=O)NC(CS)C(=O)NCCc1ccc(C(=O)O)cc1 (stereo not drawn) [Compound 151] |  | IC50 [1]: < 100 µM; IC50 [2, 4]: < 10 µM
CC[C@H](C)[C@H](NC(=O)OCC(C)C)C(=O)N1C[C@H](c2ccccc2)C[C@H]1C(=O)N[C@@H](CC(F)F)C(=O)NCCc1c(F)cc(C(=O)O)cc1F [Compound 534] | < 10 | 
CC[C@@H](C)[C@H](NC(=O)OCC(C)C)C(=O)N1C[C@H](C2CCCCC2)C[C@H]1C(=O)N[C@@H](CC(F)F)C(=O)NCCc1c(F)cc(C(=O)O)cc1F [Compound 535] | < 1 | 
CC(C)COC(=O)N[C@H](C(=O)N1C[C@H](C2CCCCC2)C[C@H]1C(=O)N[C@@H](CC(F)F)C(=O)NCCc1c(F)cc(C(=O)O)cc1F)C(C)(C)C [Compound 536] | < 10 | 
CC(C)COC(=O)N[C@H](C(=O)N1C[C@H](c2ccccc2)C[C@H]1C(=O)N[C@@H](CC(F)F)C(=O)NCCc1c(F)cc(C(=O)O)cc1F)C(C)(C)C [Compound 537] | < 10 | 
CC(C)COC(=O)N[C@H](C(=O)N1C[C@H](C2CCCCC2)C[C@H]1C(=O)N[C@@H](CC(F)F)C(=O)NCCc1c(F)cc(C(=O)O)cc1F)C1CCCC1 [Compound 538] | < 1 | 
CC(C)[C@H](NC(=O)OCC1CC1)C(=O)N1C[C@H](C2CCCCC2)C[C@H]1C(=O)N[C@@H](CC(F)F)C(=O)NCCc1c(F)cc(C(=O)O)cc1F [Compound 540] | < 1 | 
CC(C)[C@H](NC(=O)OC1CCCC1)C(=O)N1C[C@H](C2CCCCC2)C[C@H]1C(=O)N[C@@H](CC(F)F)C(=O)NCCc1c(F)cc(C(=O)O)cc1F [Compound 541] | < 1 | 
CC(C)[C@H](NC(=O)OCC1CCCC1)C(=O)N1C[C@H](C2CCCCC2)C[C@H]1C(=O)N[C@@H](CC(F)F)C(=O)NCCc1c(F)cc(C(=O)O)cc1F [Compound 542] | < 10 | 
CC(C)COC(=O)N[C@H](C(=O)N1C[C@H](SCc2ccccc2)C[C@H]1C(=O)N[C@@H](CC(F)F)C(=O)NCCc1c(F)cc(C(=O)O)cc1F)C(C)C [Compound 544] | < 10 | 
COc1cccc(S[C@@H]2C[C@@H](C(=O)N[C@@H](CC(F)F)C(=O)NCCc3c(F)cc(C(=O)O)cc3F)N(C(=O)[C@@H](NC(=O)OCC(C)C)C(C)C)C2)c1 [Compound 545] | < 1 | 
COc1cccc(S(=O)(=O)[C@@H]2C[C@@H](C(=O)N[C@@H](CC(F)F)C(=O)NCCc3c(F)cc(C(=O)O)cc3F)N(C(=O)[C@@H](NC(=O)OCC(C)C)C(C)C)C2)c1 [Compound 547] | < 1 | 

Compound | IC50 [1, 5] [µM] | also measured
CCCS[C@@H]1C[C@@H](C(=O)N[C@@H](CC(F)F)C(=O)NCCc2c(F)cc(C(=O)O)cc2F)N(C(=O)[C@@H](NC(=O)OCC(C)C)C(C)C)C1 [Compound 548] | < 1 | 
CCC[S+]([O-])[C@@H]1C[C@@H](C(=O)N[C@@H](CC(F)F)C(=O)NCCc2c(F)cc(C(=O)O)cc2F)N(C(=O)[C@@H](NC(=O)OCC(C)C)C(C)C)C1 (stereo partly drawn) [Compound 549] | < 10 | 
CCCS(=O)(=O)[C@@H]1C[C@@H](C(=O)N[C@@H](CC(F)F)C(=O)NCCc2c(F)cc(C(=O)O)cc2F)N(C(=O)[C@@H](NC(=O)OCC(C)C)C(C)C)C1 [Compound 550] | < 1 | 
CC(C)COC(=O)N[C@H](C(=O)N1C[C@H](S(=O)(=O)C2CCCCC2)C[C@H]1C(=O)N[C@@H](CC(F)F)C(=O)NCCc1c(F)cc(C(=O)O)cc1F)C(C)C [Compound 553] | < 1 | 
CC(C)COC(=O)N[C@H](C(=O)N1C[C@H](c2ccccc2)C[C@H]1C(=O)N[C@@H](CC(F)F)C(=O)NCCc1c(F)cc(-c2nn[nH]n2)cc1F)C(C)C [Compound 554] | < 1 | 
CC(C)COC(=O)N[C@H](C(=O)N1C[C@H](S(=O)(=O)C2CCCCC2)C[C@H]1C(=O)N[C@@H](CC(F)F)C(=O)NCCc1c(F)cc(-c2nn[nH]n2)cc1F)C(C)C [Compound 556] | < 1 | 
CC(C)COC(=O)N[C@H](C(=O)N1C[C@H](C2CCCCC2)C[C@H]1C(=O)N[C@@H](CC(F)F)C(=O)NCCc1c(F)cc(C(=O)NS(C)(=O)=O)cc1F)C(C)C [Compound 557] | < 1 | 
CC(C)COC(=O)N[C@H](C(=O)N1C[C@H](c2ccccc2)C[C@H]1C(=O)N[C@@H](CC(F)F)C(=O)NCCc1cccc(/C=C/C(=O)O)c1)C(C)C [Compound 558] | < 10 | 
CCOC(=O)/C=C/c1cccc(CCNC(=O)[C@H](CC(F)F)NC(=O)[C@@H]2C[C@@H](c3ccccc3)CN2C(=O)[C@@H](NC(=O)OCC(C)C)C(C)C)c1 [Compound 559] | < 100 | 
CC(C)COC(=O)N[C@H](C(=O)N1C[C@H](c2ccccc2)C[C@H]1C(=O)N[C@@H](CC(F)F)C(=O)NCCc1cccc(/C=C/C(=O)O)c1F)C(C)C [Compound 560] | < 1 | 
CC(C)COC(=O)N[C@H](C(=O)N1C[C@H](c2ccccc2)C[C@H]1C(=O)N[C@@H](CC(F)F)C(=O)NCCc1cc(/C=C/C(=O)O)ccc1F)C(C)C [Compound 561] | < 1 | 
CC(C)COC(=O)N[C@H](C(=O)N1C[C@H](c2ccccc2)C[C@H]1C(=O)N[C@@H](CC(F)F)C(=O)NCCc1cccc(OCC(=O)O)c1)C(C)C [Compound 562] | < 100 | 
CC(C)COC(=O)N[C@H](C(=O)N1C[C@H](C2CCCCC2)C[C@H]1C(=O)N[C@@H](CC(F)F)C(=O)NCCc1c(F)ccc(OCC(=O)O)c1F)C(C)C [Compound 565] | < 1 | 
CC(C)COC(=O)N[C@H](C(=O)N1C[C@H](c2ccccc2)C[C@H]1C(=O)N[C@@H](CC(F)F)C(=O)NCCc1[nH]c2ccccc2c1CCC(=O)O)C(C)C [Compound 572] | < 100 | 
CC(C)COC(=O)N[C@H](C(=O)N1C[C@H](c2ccccc2)C[C@H]1C(=O)N[C@@H](CC(F)F)C(=O)NCCc1cn(CCC(=O)O)c2ccccc12)C(C)C [Compound 573] | < 100 | 
CC(C)COC(=O)N[C@H](C(=O)N1C[C@H](c2ccccc2)C[C@H]1C(=O)N[C@@H](CC(F)F)C(=O)NCCc1c[nH]c2ccccc12)C(C)C [Compound 574] | < 100 | 
CC(C)COC(=O)N[C@@H](CCC(=O)O)C(=O)N1C[C@H](c2ccccc2)C[C@H]1C(=O)N[C@@H](CC(F)F)C(=O)NCCc1c[nH]c2ccccc12 [Compound 575] | < 100 | 
COc1ccc2c(O[C@@H]3C[C@@H](C(=O)N[C@@H](CC(F)F)C(=O)NCCc4c(F)cc(C(=O)O)cc4F)N(C(=O)[C@@H](NC(=O)OC(C)(C)C)C(C)(C)C)C3)cc(-c3ccccc3)nc2c1 [Compound 576] | < 1 | 
CC(C)[C@H](O)C(=O)N1C[C@H](OCCCc2ccccc2)CC1C(=O)N[C@@H](CC(F)F)C(=O)NCCc1c(F)cc(C(=O)O)cc1F (stereo partly drawn) [Compound 616] |  | IC50 ([1]; Table 6, full-length NS3/NS4A, read-out: Assay A): < 100 µM
